# Measured values reported in patent US10881653B2, “Tricyclic compounds and their use in the treatment of cancer” (The United States of America, as represented by the …, priority 2015, dated 2021).
# Counter-ions that a name gives are not always drawn. Like-named read-outs stand apart in the source and are kept apart here.
# How the values were obtained:
# [1] = molecular target: T1, gluthathione reductase (GR) (Homo sapiens, UniProt P00390); experiment: Inhibition of recombinant GR (GSSG assay); assay type: biochemical
# T1 sequence (P00390 44-522): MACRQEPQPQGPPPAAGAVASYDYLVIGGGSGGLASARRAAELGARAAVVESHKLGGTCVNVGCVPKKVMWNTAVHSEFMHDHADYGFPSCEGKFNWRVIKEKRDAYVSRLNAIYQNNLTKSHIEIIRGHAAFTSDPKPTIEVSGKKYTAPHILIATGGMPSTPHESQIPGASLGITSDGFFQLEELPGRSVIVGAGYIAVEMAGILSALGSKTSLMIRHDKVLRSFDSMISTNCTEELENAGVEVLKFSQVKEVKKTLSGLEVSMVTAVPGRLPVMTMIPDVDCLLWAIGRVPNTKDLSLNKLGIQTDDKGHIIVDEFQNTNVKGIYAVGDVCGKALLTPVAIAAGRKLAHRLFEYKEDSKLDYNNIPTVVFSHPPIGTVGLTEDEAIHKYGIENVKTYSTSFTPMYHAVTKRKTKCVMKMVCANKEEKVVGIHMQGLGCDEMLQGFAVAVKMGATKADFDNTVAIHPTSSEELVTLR
# Summary of the method: (§1)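 Human TrxR1 (15 nM) or GR (2 nM) preincubated 15 min with compound, 250 μM NADPH, 0.1 mg/ml BSA in 50 mM Tris pH 7.5, 2 mM EDTA, 1% DMSO. Reaction started with 2.5 mM DTNB (TrxR1, A412) or 1 mM GSSG (GR, A340). Percent activity relative to DMSO and no-enzyme blanks.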
# UACC-257 = experiment: Cell growth inhibition GI50; assay type: cell-based; details: Homo sapiens, Melanoma
# Method: (§2) Cell lines were plated 2000 cells/well in 96-well black optical plates in the presence of 10% FBS media containing 25 nM selenite. The following day cells were treated with various concentrations of the compound of Example 1 (0.1% DMSO final) and incubated for 72 hrs. After the incubation Cell-Quanti Blue reagent was added to each well and incubated for additional 3 hrs. Fluorescence was read ex:530 nm/em:590 nm, and percent of viability was determined using DMSO vehicle and no cell (blank) controls.
# (§3) Further results obtained in similar experiments were as indicated below (GI50 refers to concentration of compound yielding 50% growth inhibition; E denotes an exponent to the base 10).
# OVCAR-8 = experiment: Cell growth inhibition GI50; assay type: cell-based; details: Homo sapiens, Ovarian Cancer
# Method: as §2, §3
# SW-620 = experiment: Cell growth inhibition GI50; assay type: cell-based; details: Homo sapiens, Colon Cancer
# Method: as §2, §3
# IGROV1 = experiment: Cell growth inhibition GI50; assay type: cell-based; details: Homo sapiens, IGROV-1, Ovarian Cancer
# Method: as §2, §3
# BT-549 = experiment: Cell growth inhibition GI50; assay type: cell-based; details: Homo sapiens, Breast Cancer
# Method: as §2, §3
# EKVX = experiment: Cell growth inhibition GI50; assay type: cell-based; details: Homo sapiens, Non-Small Cell Lung Cancer
# Method: as §2, §3
# SNB-75 = experiment: Cell growth inhibition GI50; assay type: cell-based; details: Homo sapiens, CNS Cancer
# Method: as §2, §3
# DU-145 = experiment: Cell growth inhibition GI50; assay type: cell-based; details: Homo sapiens, Prostate Cancer
# Method: as §2, §3
# SK-MEL-28 = experiment: Cell growth inhibition GI50; assay type: cell-based; details: Homo sapiens, Melanoma
# Method: as §2, §3
# U251 = experiment: Cell growth inhibition GI50; assay type: cell-based; details: Homo sapiens, U-251, CNS Cancer
# Method: as §2, §3
# PC-3 = experiment: Cell growth inhibition GI50; assay type: cell-based; details: Homo sapiens, Prostate Cancer
# Method: as §2, §3
# [2] = molecular target: T2, recombinant thioredoxin reductase 1 (TrxR1) (Homo sapiens, UniProt Q16881); experiment: Inhibition of recombinant TrxR1 (DTNB assay); assay type: biochemical
# T2 sequence (Q16881 1-649): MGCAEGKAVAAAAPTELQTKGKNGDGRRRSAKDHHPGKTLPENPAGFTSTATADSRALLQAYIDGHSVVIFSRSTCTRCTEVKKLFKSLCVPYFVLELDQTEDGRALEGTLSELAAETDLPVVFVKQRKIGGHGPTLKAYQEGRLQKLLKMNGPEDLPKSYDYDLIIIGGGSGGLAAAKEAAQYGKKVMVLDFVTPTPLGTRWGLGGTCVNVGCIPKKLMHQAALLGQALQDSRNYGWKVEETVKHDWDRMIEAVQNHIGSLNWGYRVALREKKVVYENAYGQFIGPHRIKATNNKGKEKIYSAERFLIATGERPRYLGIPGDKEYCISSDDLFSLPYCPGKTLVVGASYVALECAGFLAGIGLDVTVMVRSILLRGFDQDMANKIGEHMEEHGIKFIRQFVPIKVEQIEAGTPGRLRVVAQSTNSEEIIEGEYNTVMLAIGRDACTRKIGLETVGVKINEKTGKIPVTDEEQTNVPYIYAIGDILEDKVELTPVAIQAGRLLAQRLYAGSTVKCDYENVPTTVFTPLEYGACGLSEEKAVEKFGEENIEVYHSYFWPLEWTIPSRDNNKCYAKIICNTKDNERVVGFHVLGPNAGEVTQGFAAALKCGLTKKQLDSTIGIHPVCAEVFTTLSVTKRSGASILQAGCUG
# Summary of the method: as §1
# FaDu cells = details: mouse, in vivo, 15 mg/kg
# Method: Fox Chase male severe combined immunodeficiency (SCID, Charles River, #250) mice were inoculated with 1×10^6 FaDu cells in PBS at a pre-shaved region located at the anterior lateral thoracic wall. After 13 days of growth, tumors were caliper measured and treatments were initiated. Mice were injected with 15 mg/kg of the compound of Example 1, or vehicle a total of nine times in a five-day span via i.v. tail injection. Upon the final dose, injections were performed subcutaneously (s.c.) due to pronounced hematomas at the tail injection site. Mouse health status was monitored daily, weight was measured, and tumor volume was recorded from caliper measurements. […] Tumor growth was normalized to day 0 caliper measurements, and treatment with the compound of Example 1 (N=6, p<0.01) was compared to vehicle (N=4) using a repeated measures ANOVA with a Dunnett's multiple comparison post test.
compound,measurement,setting,value
"O=C1C=C[C@H]2[C@@H]3C(=O)N(c4ccccc4)C(=O)[C@@H]3[C@@H]1N2Cc1ccccc1 (relative stereo) [Example 1, exo-11-Benzyl-4-phenyl-4,11-diazatricyclo[5.3.1.0^2,6]undec-9-ene-3,5,8-trione Trifluoroacetate]",IC50,"[1]; Biological Example 1, 2 nM GR, 250 μM NADPH, 15 minutes incubation",> 100 µM
same,IC50,"[1]; Biological Example 4, assays of Biological Example 1",> 100 µM
same,GI50,UACC-257,3.22 µM
same,GI50,OVCAR-8,2.88 µM
same,GI50,SW-620,1.86 µM
same,GI50,IGROV1,4.81 µM
same,GI50,BT-549,3.45 µM
same,GI50,EKVX,7.78 µM
same,GI50,SNB-75,4.19 µM
same,GI50,DU-145,9.66 µM
same,GI50,SK-MEL-28,3.01 µM
same,GI50,U251,2.29 µM
same,GI50,PC-3,4.68 µM
same,IC50,"[2]; Biological Example 1, 15 nM TrxR1, 250 μM NADPH, 15 minutes incubation, read-out: TrxR inhibition",2.14 µM
same,IC50,"[2]; Biological Example 4, assays of Biological Example 1, read-out: TrxR Inhibition",2.19 µM
same,Signs of general or systemic toxic effects,FaDu cells,no overt signs of general or systemic toxic effects in normal cells or tissues
